Assay results reported in US5637690A, “Sulfate of n-acetylneuraminic acid homopolymer and processes for making and using the same” (Marukin Shoyu Co., Ltd., priority 1993, dated 1997).

Assays:
HIV = assay: Anti-HIV activity: HIV antigen positive MT-4 cells by immunofluorescence (Pharmacological Tests 1 and 3); format: cell-based
Protocol: (§1) A medium in which MT-4 cell [Miyoshi I. et al., Gann Monogr., 28, 219-228 (1982)] was included in a proportion of 2×10^5 cell/ml medium (RPMI-1640+10%FCS) was prepared. To each of 500 μl portion of the medium were added sulfated colominic acid obtained from examples 1 and 2 at a concentration shown in table 1. After two hours addition of the esters, HIV was infected to cells in each well in the proportion of 5×10^3 PFU/well. After 4 days from HIV infection, smear of MT-4 cell was prepared to detect HIV antigen positive cells by immunofluorescence (Harada S. et al., Science, 229, 563-566 (1985); Takeuchi Y., et al., Jpn. J. Cancer Res. (Gann), 78, 11-15 (1987)).
An anti-HIV activity of colominic acid which is a starting material in place of sulfated colominic acid was determined in the same manner as above.
(§2) In tables 1 and 3, a sample having a concentration of sulfated colominic acid of zero was regarded as control. In table 2, "--" indicates no toxicity.
(§3) In order to determine the minimum number of monomer unit of N-acetylneuraminic acid homopolymer, sulfate esters of formula (I) in which n is 1-6 were produced. A cytotoxicity and an anti-HIV activity of each sulfate ester were determined in the same manner as pharmacological tests 1 and 2.

MT-4 cell = assay: Cytotoxicity on MT-4 cells (Pharmacological Tests 1, 2 and 3); format: cell-based; design: key to Toxicity: --: no cytotoxicity or no anti-HIV activity; key to Cytotoxicity: --: no toxicity; details: for Cytotoxicity: Table 2; for Toxicity: Table 4
Protocol: as §1, §2
A cytotoxicity of sulfated colominic acid was assayed in the same manner as Pharmacological Test 1. Specifically, after MT-4 cell prepared at a concentration of 1×10^5 cell/ml was cultured for 4 days in the presence of a variety of concentrations of sulfated colominic acid, the number of cells was counted. Cytotoxicity was evaluated by calculating a cell survival ratio in each final concentration of sulfated colominic acid taking as 100% the cell survival ratio of control, in which final concentration of sulfated colominic acid is zero.
as §3

colominic acid [reference compound]
anti-HIV activity (in words) (HIV; Table 2, 1-100 μg/ml): does not have an anti-HIV activity | Cell infection ratio (HIV; Table 2, final concentration 1 μg/ml): > 95% | Cell infection ratio (HIV; Table 2, final concentration 3 μg/ml): > 95% | Cell infection ratio (HIV; Table 2, final concentration 10 μg/ml): > 95% | Cell infection ratio (HIV; Table 2, final concentration 30 μg/ml): > 95% | Cell infection ratio (HIV; Table 2, final concentration 100 μg/ml): > 95% | Cytotoxicity (MT-4 cell; final concentration 1 μg/ml): -- | Cytotoxicity (MT-4 cell; final concentration 3 μg/ml): -- | Cytotoxicity (MT-4 cell; final concentration 10 μg/ml): -- | Cytotoxicity (MT-4 cell; final concentration 30 μg/ml): -- | Cytotoxicity (MT-4 cell; final concentration 100 μg/ml): --

sulfate ester of N-acetylneuraminic acid hexamer [DP-6-S]
IC50 (HIV; Table 4, anti-HIV, MT-4 cells): 20 µg/mL | Cell infection ratio (HIV; Table 4, final concentration 0.1 μg/ml): > 95% | Cell infection ratio (HIV; Table 4, final concentration 0.3 μg/ml): > 95% | Cell infection ratio (HIV; Table 4, final concentration 1 μg/ml): > 95% | Cell infection ratio (HIV; Table 4, final concentration 3 μg/ml): > 95% | Cell infection ratio (HIV; Table 4, final concentration 10 μg/ml): 80% | Cell infection ratio (HIV; Table 4, final concentration 30 μg/ml): 30% | Cell infection ratio (HIV; Table 4, final concentration 100 μg/ml): < 5% | Toxicity (MT-4 cell; final concentration 0.1 μg/ml): -- | Toxicity (MT-4 cell; final concentration 0.3 μg/ml): -- | Toxicity (MT-4 cell; final concentration 1 μg/ml): -- | Toxicity (MT-4 cell; final concentration 3 μg/ml): -- | Toxicity (MT-4 cell; final concentration 10 μg/ml): -- | Toxicity (MT-4 cell; final concentration 30 μg/ml): -- | Toxicity (MT-4 cell; final concentration 100 μg/ml): --
